# System: MRC-9 cells
# Assay: Multiplex high-content viability assessment
# Format: cell-based
# Details: 1 µM, human fibroblast
# Protocol: To assess the influence on cell health, a high-content screening in living cells called the multiplex high-content assay, as described previously by Tjaden et al., was performed.[38] In brief, HEK293T (ATCC CRL-1573) and U2OS (ATCCHTB-96) were cultured in DMEM plus L-glutamine (high glucose) supplemented by 10% FBS (Gibco) and penicillin/streptomycin (Gibco). MRC-9 fibroblasts ([…]) were cultured in EMEM plus L-glutamine supplemented by 10% FBS (Gibco) and penicillin/streptomycin (Gibco). Cells were seeded at a density of 1250 cells per well in a 384-well plate in a culture medium (cell culture microplate, PS, f-bottom, μClear, 781091, Greiner), with a volume of 50 μL per well. All outer wells were filled with 100 μL of PBS buffer (Gibco). […] The cell shape and fluorescence were measured before treatment and 12, 24, and 48 h after compound treatment using the CQ1 high-content confocal microscope (Yokogawa, Musashino, Japan). […] The compounds were tested at 1 and 10 μM, respectively. Acquired images of the cells were processed using Yokogawa CellPathfinder software (v3.04.02.02). […] Results were normalized to cells exposed to 0.1% DMSO. All compounds were tested in biological duplicates, and SEM (standard error of mean) was calculated of biological duplicates.
smiles,measurement,setting,value
CC(C)C(=O)Nc1ncc(-c2cc(C(F)F)nn2-c2c(Cl)cccc2Cl)s1 [LIMKi3],Cell count normalized to cells treated with DMSO control,"0 h, biological replicate 1",1.034
same,Cell count per well,"0 h, biological replicate 1",155
same,Population Fragmented Nuclei (%),"0 h, biological replicate 1",25.33%
same,Population Healthy Nuclei (%),"0 h, biological replicate 1",53.33%
same,Population Pyknosed Nuclei (%),"0 h, biological replicate 1",21.33%
same,Population apoptotic cell (%),"0 h, biological replicate 1",34.38%
same,Population cell that influence microtubule strucutre (%),"0 h, biological replicate 1",18.75%
same,Population with increased mitochondrial mass (%),"0 h, biological replicate 1",7.50%
same,Population with membrane disruption (%),"0 h, biological replicate 1",1.25%
same,Cell count normalized to cells treated with DMSO control,"0 h, biological replicate 2",0.869
same,Cell count per well,"0 h, biological replicate 2",155
same,Population Fragmented Nuclei (%),"0 h, biological replicate 2",31.13%
same,Population Healthy Nuclei (%),"0 h, biological replicate 2",41.06%
same,Population Pyknosed Nuclei (%),"0 h, biological replicate 2",27.81%
same,Population apoptotic cell (%),"0 h, biological replicate 2",38.10%
same,Population cell that influence microtubule strucutre (%),"0 h, biological replicate 2",48.39%
same,Population with increased mitochondrial mass (%),"0 h, biological replicate 2",11.29%
same,Population with membrane disruption (%),"0 h, biological replicate 2",8.06%
same,Cell count normalized to cells treated with DMSO control,"12 h, biological replicate 1",0.9165
same,Cell count per well,"12 h, biological replicate 1",138
same,Population Fragmented Nuclei (%),"12 h, biological replicate 1",20.00%
same,Population Healthy Nuclei (%),"12 h, biological replicate 1",63.70%
same,Population Pyknosed Nuclei (%),"12 h, biological replicate 1",16.30%
same,Population apoptotic cell (%),"12 h, biological replicate 1",22.73%
same,Population cell that influence microtubule strucutre (%),"12 h, biological replicate 1",25.58%
same,Population with increased mitochondrial mass (%),"12 h, biological replicate 1",5.81%
same,Population with membrane disruption (%),"12 h, biological replicate 1",1.16%
same,Cell count normalized to cells treated with DMSO control,"12 h, biological replicate 2",0.8765
same,Cell count per well,"12 h, biological replicate 2",146
same,Population Fragmented Nuclei (%),"12 h, biological replicate 2",30.94%
same,Population Healthy Nuclei (%),"12 h, biological replicate 2",44.60%
same,Population Pyknosed Nuclei (%),"12 h, biological replicate 2",24.46%
same,Population apoptotic cell (%),"12 h, biological replicate 2",35.29%
same,Population cell that influence microtubule strucutre (%),"12 h, biological replicate 2",75.81%
same,Population with increased mitochondrial mass (%),"12 h, biological replicate 2",11.29%
same,Population with membrane disruption (%),"12 h, biological replicate 2",20.97%
same,Cell count normalized to cells treated with DMSO control,"24 h, biological replicate 1",0.9351
same,Cell count per well,"24 h, biological replicate 1",141
same,Population Fragmented Nuclei (%),"24 h, biological replicate 1",15.83%
same,Population Healthy Nuclei (%),"24 h, biological replicate 1",69.06%
same,Population Pyknosed Nuclei (%),"24 h, biological replicate 1",15.11%
same,Population apoptotic cell (%),"24 h, biological replicate 1",33.33%
same,Population cell that influence microtubule strucutre (%),"24 h, biological replicate 1",33.33%
same,Population with increased mitochondrial mass (%),"24 h, biological replicate 1",7.29%
same,Population with membrane disruption (%),"24 h, biological replicate 1",0.00%
same,Cell count normalized to cells treated with DMSO control,"24 h, biological replicate 2",0.8553
same,Cell count per well,"24 h, biological replicate 2",141
same,Population Fragmented Nuclei (%),"24 h, biological replicate 2",38.85%
same,Population Healthy Nuclei (%),"24 h, biological replicate 2",41.73%
same,Population Pyknosed Nuclei (%),"24 h, biological replicate 2",19.42%
same,Population apoptotic cell (%),"24 h, biological replicate 2",40.74%
same,Population cell that influence microtubule strucutre (%),"24 h, biological replicate 2",62.07%
same,Population with increased mitochondrial mass (%),"24 h, biological replicate 2",12.07%
same,Population with membrane disruption (%),"24 h, biological replicate 2",20.69%
same,Cell count normalized to cells treated with DMSO control,"48 h, biological replicate 1",0.9887
same,Cell count per well,"48 h, biological replicate 1",150
same,Population Fragmented Nuclei (%),"48 h, biological replicate 1",26.21%
same,Population Healthy Nuclei (%),"48 h, biological replicate 1",62.07%
same,Population Pyknosed Nuclei (%),"48 h, biological replicate 1",11.72%
same,Population apoptotic cell (%),"48 h, biological replicate 1",52.94%
same,Population cell that influence microtubule strucutre (%),"48 h, biological replicate 1",31.11%
same,Population with increased mitochondrial mass (%),"48 h, biological replicate 1",6.67%
same,Population with membrane disruption (%),"48 h, biological replicate 1",0.00%
same,Cell count normalized to cells treated with DMSO control,"48 h, biological replicate 2",0.8351
same,Cell count per well,"48 h, biological replicate 2",136
same,Population Fragmented Nuclei (%),"48 h, biological replicate 2",42.54%
same,Population Healthy Nuclei (%),"48 h, biological replicate 2",45.52%
same,Population Pyknosed Nuclei (%),"48 h, biological replicate 2",11.94%
same,Population apoptotic cell (%),"48 h, biological replicate 2",37.50%
same,Population cell that influence microtubule strucutre (%),"48 h, biological replicate 2",77.05%
same,Population with increased mitochondrial mass (%),"48 h, biological replicate 2",14.75%
same,Population with membrane disruption (%),"48 h, biological replicate 2",9.84%
